Like-named read-outs stand apart in the source and are kept apart here. Numbered stars: 1 amine (or outer) side, 2 acyl side, 3 side chain; on linkers, the order of the positions; unused ones are H or OH. Bridge positions count the residues as written; N and C are the ends. Square brackets hold non-standard residues; d marks the D form. Side chains are listed from the residue outwards. Peptide text beside a SMILES is read from it. * marks the point of attachment. ξ: configuration not given here. TtdsdLys(DOTA)NH2 = NC(=O)[C@@H](CCCCNC(=O)CN1CCN(CC(=O)O)CCN(CC(=O)O)CCN(CC(=O)O)CC1)NC(=O)CCC(=O)NCCCOCCOCCOCCCN*; NH(CH2)5NHDOTA = O=C(O)CN1CCN(CC(=O)O)CCN(CC(=O)NCCCCCN*)CCN(CC(=O)O)CC1; X3 = O=C(O)CN1CCN(CC(=O)O)CCN(CC(=O)NCCCOCCOCCOCCCN*)CCN(CC(=O)O)CC1; DOTA = O=C(O)CN1CCN(CC(=O)O)CCN(CC(=O)*)CCN(CC(=O)O)CC1; Phe(4-Cl) = N[C@@H](Cc1ccc(Cl)cc1)C(=O)O; X1 = O=C(CC1CCN([*:1])CC1)[*:2]; αMeD = C[C@](N)(CC(=O)O)C(=O)O; Suc = O=C(CCC(=O)[*:2])[*:1]; Tle = CC(C)(C)[C@H](N)C(=O)O; αMeP = C[C@@]1(C(=O)O)CCCN1; 4Abz = Nc1ccc(C(=O)O)cc1; Nle = CCCC[C@H](N)C(=O)O; Aib = CC(C)(N)C(=O)O; CH2 = C([*:1])[*:2]; ξP = O=C(O)C1CCCN1; GABA = NCCCC(=O)O; Sar = CNCC(=O)O
Tests used:
[1] = biological target: T1, PSMA-expressing C4-2 cells (Homo sapiens, UniProt Q04609); test: FACS binding assay (competition with 50 nM PSM-0183); settings: read-out: pIC50 [C4-2] CAT (converted)
T1 construct: PSMA-expressing C4-2 cells (ATCC, Cat. No. CRL-3314) were cultured in RPMI-1640; host or cells: C4-2 cells
T1 sequence (Q04609 whole entry): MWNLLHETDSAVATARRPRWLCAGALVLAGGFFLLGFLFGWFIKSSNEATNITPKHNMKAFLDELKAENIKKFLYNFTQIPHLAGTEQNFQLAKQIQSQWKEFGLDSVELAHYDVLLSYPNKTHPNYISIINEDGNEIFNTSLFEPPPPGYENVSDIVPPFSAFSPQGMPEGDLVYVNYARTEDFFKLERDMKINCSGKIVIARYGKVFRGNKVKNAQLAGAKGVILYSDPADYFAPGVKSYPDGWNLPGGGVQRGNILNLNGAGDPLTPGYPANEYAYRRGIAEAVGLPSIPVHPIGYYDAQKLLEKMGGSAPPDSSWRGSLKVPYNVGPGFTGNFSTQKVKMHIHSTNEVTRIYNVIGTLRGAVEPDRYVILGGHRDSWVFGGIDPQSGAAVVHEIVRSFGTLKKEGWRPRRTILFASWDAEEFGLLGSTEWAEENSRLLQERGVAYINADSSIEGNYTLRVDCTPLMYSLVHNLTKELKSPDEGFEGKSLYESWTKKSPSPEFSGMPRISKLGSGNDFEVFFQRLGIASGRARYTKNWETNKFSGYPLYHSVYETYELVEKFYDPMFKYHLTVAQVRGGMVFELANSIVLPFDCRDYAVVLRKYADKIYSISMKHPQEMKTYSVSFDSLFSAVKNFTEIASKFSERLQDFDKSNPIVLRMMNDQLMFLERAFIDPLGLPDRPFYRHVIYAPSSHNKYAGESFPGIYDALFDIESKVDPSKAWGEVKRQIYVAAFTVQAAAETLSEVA
Summary of the method: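 Competition format: fluorescent tracer PSM-0183 (50 nM) displaced from PSMA on C4-2 cells by a test compound titration over 1 h at 4 °C. Bound tracer was quantified as flow-cytometric AF488 median fluorescence after washing. Four-parameter logistic fits of MFI data gave IC50 and pIC50.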

[2] = biological target: T2, Fc-fusion protein of human PSMA (hPSMA-Fc) (Homo sapiens, UniProt Q04609); test: Surface plasmon resonance assay (Biacore T200, single cycle kinetic); assay type: binding; settings: hPSMA-Fc, 25° C., read-out: pKD CAT (converted)
T2 construct: purchased Acro Biosystems PSA-H5264
T2 sequence (Q04609 44-750 limits assumed): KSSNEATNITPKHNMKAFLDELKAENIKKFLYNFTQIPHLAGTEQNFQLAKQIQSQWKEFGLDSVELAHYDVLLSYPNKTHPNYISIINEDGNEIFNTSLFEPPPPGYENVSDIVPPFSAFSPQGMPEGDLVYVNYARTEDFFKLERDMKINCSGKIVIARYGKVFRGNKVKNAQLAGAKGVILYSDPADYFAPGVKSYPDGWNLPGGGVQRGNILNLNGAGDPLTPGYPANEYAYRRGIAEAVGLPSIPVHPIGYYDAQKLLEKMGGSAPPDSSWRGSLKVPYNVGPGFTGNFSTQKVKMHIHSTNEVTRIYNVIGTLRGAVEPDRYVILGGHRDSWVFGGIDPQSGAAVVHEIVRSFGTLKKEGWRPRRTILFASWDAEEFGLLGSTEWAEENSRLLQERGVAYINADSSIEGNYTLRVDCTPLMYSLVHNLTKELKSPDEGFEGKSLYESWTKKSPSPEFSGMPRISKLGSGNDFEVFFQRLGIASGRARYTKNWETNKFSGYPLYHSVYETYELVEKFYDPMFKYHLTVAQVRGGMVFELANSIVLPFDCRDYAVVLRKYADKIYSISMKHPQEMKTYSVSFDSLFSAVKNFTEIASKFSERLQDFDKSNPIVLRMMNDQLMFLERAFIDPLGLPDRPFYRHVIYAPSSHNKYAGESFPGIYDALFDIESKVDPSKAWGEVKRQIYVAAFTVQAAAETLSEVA
Summary of the method: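 KD, expressed as pKD, came from 1:1 Langmuir fits of reference- and buffer-blank-subtracted SPR data. The runs were single-cycle kinetics at 25° C in HBST/0.1% DMSO over human PSMA-Fc, captured to ~1000 RU on a peptide-coated CM5 surface and regenerated with 10 mM glycine pH 1.5.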

[3] = pIC50 category of FACS binding, C4-2 cells
[4] = pKD category for PSMA SPR activity assay
[5] = FACS binding, PSMA-expressing C4-2 cells, pIC50 category

CC(=O)N[C@H](C(=O)NC(C)(C)C(=O)N[C@@H](Cc1ccccc1)C(=O)N[C@H]1CSSC[C@@H](C(=O)N[C@H](C(=O)N2CCCC2C(N)=O)C(C)(C)C)NC(=O)[C@H](CC(N)=O)NC(=O)C(C)(C)NC(=O)[C@H](CCCNC(=N)N)NC(=O)[C@H](CCCCN)NC1=O)[C@@H](C)O (stereo partly drawn) [PSM-0388, Ac-Thr-Aib-Phe-[Cys-Lys-Arg-Aib-Asn-Cys]-Tle-Pro-NH2] (Ac-T[Aib]FCKR[Aib]NC[Tle][ξP]-NH2; disulfide 4-9)
IC50 [1, 3]: < 200 nM
Kd [2, 4]: < 12.6 nM

CCCC[C@H](NC(=O)[C@@H]1CSSC[C@H](NC(=O)[C@H](Cc2ccccc2)NC(=O)[C@H](C)NC(=O)[C@@H](NC(C)=O)[C@@H](C)O)C(=O)N[C@@H](CCCCN)C(=O)N[C@@H](CCCNC(=N)N)C(=O)N[C@@H](C)C(=O)N[C@@H](CC(N)=O)C(=O)N1)C(=O)N[C@@H](C)C(=O)N[C@@H](CC(=O)O)C(N)=O [PSM-0476, Ac-Thr-Als-Phe-[Cys-Lys-Arg-Ala-Asn-Cys]-Nle-Als-Asp-NH2] (Ac-TAFCKRANC[Nle]AD-NH2; disulfide 4-9)
IC50 [1, 3]: 200 to 1260 nM
Kd [2, 4]: 126 to 501 nM

C[C@@H](O)[C@H](NC(=O)[C@@H](NC(=O)[C@@H]1CSSC[C@H](NC(=O)[C@H](Cc2ccccc2)NC(=O)C(C)(C)NC(=O)[C@@H](NC(=O)c2ccc(NC(=O)CN3CCN(CC(=O)O)CCN(CC(=O)O)CCN(CC(=O)O)CC3)cc2)[C@@H](C)O)C(=O)N[C@@H](CCCCN)C(=O)N[C@@H](CCCNC(=N)N)C(=O)NC(C)(C)C(=O)N[C@@H](CC(N)=O)C(=O)N1)C(C)(C)C)C(N)=O [PSM-0448, DOTA-Pab-Thr-Aib-Phe-[Cys-Lys-Arg-Aib-Asn-Cys]-Tle-Thr-NH2] ({DOTA-4Abz}-T[Aib]FCKR[Aib]NC[Tle]T-NH2; disulfide 4-9)
IC50 [1, 3]: < 200 nM
Kd [2, 4]: < 12.6 nM

CC(=O)N[C@H](C(=O)N(C)CC(=O)N[C@@H](Cc1ccccc1)C(=O)N[C@H]1CSSC[C@@H](C(=O)N[C@H](C(=O)N[C@H](C(N)=O)[C@@H](C)O)C(C)(C)C)NC(=O)[C@H](CC(N)=O)NC(=O)C(C)(C)NC(=O)[C@H](CCCNC(=N)N)NC(=O)[C@H](CCCCN)NC1=O)[C@@H](C)O [PSM-0408, Ac-Thr-Nmg-Phe-[Cys-Lys-Arg-Aib-Asn-Cys]-Tle-Thr-NH2] (Ac-T[Sar]FCKR[Aib]NC[Tle]T-NH2; disulfide 4-9)
IC50 [1, 3]: 200 to 1260 nM
Kd [2, 4]: 126 to 501 nM

CC(=O)N[C@H](C(=O)NC(C)(C)C(=O)N[C@@H](Cc1ccccc1)C(=O)N[C@H]1CSSC[C@@H](C(=O)N[C@H](C(=O)N[C@H](C(=O)NCCCOCCOCCOCCCNC(=O)CCC(=O)N[C@H](CCCCNC(=O)CN2CCN(CC(=O)O)CCN(CC(=O)O)CCN(CC(=O)O)CC2)C(N)=O)[C@@H](C)O)C(C)(C)C)NC(=O)[C@H](CC(N)=O)NC(=O)[C@H](C)NC(=O)[C@H](CCCNC(=N)N)NC(=O)[C@H](CCCCN)NC1=O)[C@@H](C)O [PSM-0231, Ac-Thr-Aib-Phe-[Cys-Lys-Arg-Ala-Asn-Cys]-Tle-Thr-Ttds-lys(DOTA)-NH2] (Ac-T[Aib]FCKRANC[Tle]T-{TtdsdLys(DOTA)NH2}; disulfide 4-9)
IC50 ([1]; FACS binding, C4-2 cells, competition with 50 nM PSM-0183, category): < 200 nM
Kd ([2]; SPR, single cycle kinetic, category): < 12.6 nM

CCCC[C@H](NC(=O)[C@@H]1CSSC[C@H](NC(=O)[C@H](Cc2ccccc2)NC(=O)[C@H](C)NC(=O)[C@@H](NC(C)=O)[C@@H](C)O)C(=O)N[C@@H](CCCCN)C(=O)N[C@@H](CCCNC(=N)N)C(=O)N2CCC[C@H]2C(=O)N[C@@H](CC(N)=O)C(=O)N1)C(=O)N[C@H](C(=O)N[C@@H](CC(=O)O)C(N)=O)[C@@H](C)O [PSM-0460, Ac-Thr-Ala-Phe-[Cys-Lys-Arg-Pro-Asn-Cys]-Nle-Thr-Asp-NH2] (Ac-TAFCKRPNC[Nle]TD-NH2; disulfide 4-9)
IC50 [1, 3]: < 200 nM
Kd [2, 4]: 12.6 to 126 nM

CC(=O)N[C@H](C(=O)NC(C)(C)C(=O)N[C@@H](Cc1ccccc1)C(=O)N[C@H]1CSSC[C@H](C(=O)N[C@H](C(=O)N[C@H](C(N)=O)[C@@H](C)O)C(C)(C)C)NC(=O)[C@H](CC(N)=O)NC(=O)C(C)(C)NC(=O)[C@H](CCCNC(=N)N)NC(=O)[C@H](CCCCN)NC1=O)[C@@H](C)O [PSM-0331, Ac-Thr-Aib-Phe-[Cys-Lys-Arg-Aib-Asn-cys]-Tle-Thr-NH2] (Ac-T[Aib]FCKR[Aib]N[dC][Tle]T-NH2; disulfide 4-9)
IC50 [1, 5]: 200 to 1260 nM
Kd ([2]; PSMA SPR assay, pKD category): > 501 nM

CC(=O)N[C@H](C(=O)N1CCC[C@@]1(C)C(=O)N[C@@H](Cc1ccccc1)C(=O)N[C@H]1CSSC[C@@H](C(=O)N[C@H](C(=O)N[C@H](C(N)=O)[C@@H](C)O)C(C)(C)C)NC(=O)[C@H](CC(N)=O)NC(=O)C(C)(C)NC(=O)[C@H](CCCNC(=N)N)NC(=O)[C@H](CCCCN)NC1=O)[C@@H](C)O [PSM-0508, Ac-Thr-Pam-Phe-[Cys-Lys-Arg-Aib-Asn-Cys]-Tle-Thr-NH2] (Ac-T[αMeP]FCKR[Aib]NC[Tle]T-NH2; disulfide 4-9)
IC50 [1, 3]: < 200 nM
Kd [2, 4]: < 12.6 nM

CC(=O)N[C@H](C(=O)NC(C)(C)C(=O)N[C@@H](Cc1ccccc1)C(=O)N[C@H]1CSSC[C@@H](C(=O)N[C@H](C(=O)N[C@H](C(=O)NCCCCCNC(=O)CN2CCN(CC(=O)O)CCN(CC(=O)O)CCN(CC(=O)O)CC2)[C@@H](C)O)C(C)(C)C)NC(=O)[C@H](CC(N)=O)NC(=O)C(C)(C)NC(=O)[C@H](CCCNC(=N)N)NC(=O)[C@H](CCCCN)NC1=O)[C@@H](C)O [PSM-0391, Ac-Thr-Aib-Phe-[Cys-Lys-Arg-Aib-Asn-Cys]-Tle-Thr-Ape-DOTA] (Ac-T[Aib]FCKR[Aib]NC[Tle]T-{NH(CH2)5NHDOTA}; disulfide 4-9)
IC50 [1, 3]: < 200 nM
Kd [2, 4]: < 12.6 nM

C[C@@H](O)[C@H](NC(=O)CC1CCN(C(=O)CN2CCN(CC(=O)O)CCN(CC(=O)O)CCN(CC(=O)O)CC2)CC1)C(=O)NC(C)(C)C(=O)N[C@@H](Cc1ccc(Cl)cc1)C(=O)N[C@H]1CSCSC[C@@H](C(=O)N[C@H](C(N)=O)C(C)(C)C)NC(=O)[C@H](CC(N)=O)NC(=O)C(C)(C)NC(=O)[C@H](CCCNC(=N)N)NC(=O)[C@H](CCCCN)NC1=O [PSM-0332, DOTA-Cmp-Thr-Aib-Pcf-[Smc-Lys-Arg-Aib-Asn-Cys]-Tle-NH2] ({DOTA}-[X1]T[Aib][Phe(4-Cl)]CKR[Aib]NC[Tle]-NH2; linker 5-10 via CH2)
IC50 [1, 5]: < 200 nM
Kd ([2]; PSMA SPR assay, pKD category): < 12.6 nM

CC(=O)N[C@H](C(=O)NC(C)(C)C(=O)N[C@@H](Cc1ccccc1)C(=O)N[C@H]1CSSC[C@@H](C(=O)N[C@H](C(=O)N[C@H](C(=O)N[C@@H](CC(=O)O)C(N)=O)[C@@H](C)O)C(C)(C)C)NC(=O)[C@H](CC(N)=O)NC(=O)[C@H](CCCCNC(=O)CCC(=O)NCCCOCCOCCOCCCNC(=O)CN2CCN(CC(=O)O)CCN(CC(=O)O)CCN(CC(=O)O)CC2)NC(=O)[C@H](CCCNC(=N)N)NC(=O)[C@H](CCCCN)NC1=O)[C@@H](C)O [PSM-0542, Ac-Thr-Aib-Phe-[Cys-Lys-Arg-Lys(DOTA-Ttds)-Asn-Cys]-Tle-Thr-Asp-NH2] (Ac-T[Aib]FCKRK([Suc-X3])NC[Tle]TD-NH2; disulfide 4-9)
IC50 [1, 3]: < 200 nM
Kd [2, 4]: < 12.6 nM

CCCC[C@H](NC(=O)[C@@H]1CSSC[C@H](NC(=O)[C@H](Cc2ccccc2)NC(=O)[C@H](C)NC(=O)[C@@H](NC(C)=O)[C@@H](C)O)C(=O)N[C@@H](CCCCN)C(=O)N[C@@H](CCCNC(=N)N)C(=O)N[C@@H](C)C(=O)N[C@@H](CC(N)=O)C(=O)N1)C(=O)N[C@H](C(=O)NCCCC(=O)O)[C@@H](C)O [PSM-0313, Ac-Thr-Ala-Phe-[Cys-Lys-Arg-Ala-Asn-Cys]-Nle-Thr-Gab-OH] (Ac-TAFCKRANC[Nle]T[GABA]-OH; disulfide 4-9)
IC50 [1, 5]: 200 to 1260 nM
Kd ([2]; PSMA SPR assay, pKD category): 126 to 501 nM

CC(=O)N[C@H](C(=O)NC(C)(C)C(=O)N[C@@H](Cc1ccc(Cl)cc1)C(=O)N[C@H]1CSSC[C@@H](C(=O)N[C@H](C(N)=O)C(C)(C)C)NC(=O)[C@H](CC(N)=O)NC(=O)C(C)(C)NC(=O)[C@H](CCCNC(=N)N)NC(=O)[C@H](CCCCN)NC1=O)[C@@H](C)O [PSM-0367, Ac-Thr-Aib-Pcf-[Cys-Lys-Arg-Aib-Asn-Cys]-Tle-NH2] (Ac-T[Aib][Phe(4-Cl)]CKR[Aib]NC[Tle]-NH2; disulfide 4-9)
IC50 [1, 3]: < 200 nM
Kd [2, 4]: < 12.6 nM

C[C@@H](O)[C@H](NC(=O)[C@@H](NC(=O)[C@@H]1CSSC[C@H](NC(=O)[C@H](Cc2ccc(Cl)cc2)NC(=O)C(C)(C)NC(=O)[C@@H](NC(=O)CC2CCN(C(=O)CN3CCN(CC(=O)O)CCN(CC(=O)O)CCN(CC(=O)O)CC3)CC2)[C@@H](C)O)C(=O)N[C@@H](CCCCN)C(=O)N[C@@H](CCCNC(=N)N)C(=O)N[C@@](C)(CC(=O)O)C(=O)N[C@@H](CC(N)=O)C(=O)N1)C(C)(C)C)C(N)=O [PSM-0302, DOTA-Cmp-Thr-Aib-Pcf-[Cys-Lys-Arg-Amd-Asn-Cys]-Tle-Thr-NH2] ({DOTA}-[X1]T[Aib][Phe(4-Cl)]CKR[αMeD]NC[Tle]T-NH2; disulfide 5-10)
IC50 [1, 5]: < 200 nM
Kd ([2]; PSMA SPR assay, pKD category): < 12.6 nM

Source: patent publication US20260083865A1, “PROSTATE SPECIFIC MEMBRANE ANTIGEN (PSMA) LIGANDS AND USE THEREOF” (priority 2022, published 2026)
